Measurements as given in ChEMBL document CHEMBL5252585, “Structure optimization and discovery of novel compound for the treatment of insertion mutations within exon 20 of EGFR and HER2” (Bioorg Med Chem, 2023).

Experiments:
[1] = system: BaF3; assay: Antiproliferative activity against mouse BAF3 cells harboring HER2-P780-Y781 ins GSP mutant after 72 hrs by celltiter-Glo luminescence assay; assay type: functional, cell-based; details: BaF3, 72 h
[2] = system: BaF3; assay: Antitumor activity against mouse BaF3 cells implanted in BALB/c mouse harboring EGFR D770-N771 ins NPG mutant assessed as tumor growth inhibition at 10 mg/kg, po administered once daily for 13 to 14 days; assay type: functional; details: time 13-14 day, read-out: TGI
[3] = target: T1, Ephrin type-A receptor 6 (Homo sapiens) (UniProt Q9UF33); assay: Inhibition of EPHA6 (unknown origin) at 500 nM relative to control
T1 sequence (whole entry): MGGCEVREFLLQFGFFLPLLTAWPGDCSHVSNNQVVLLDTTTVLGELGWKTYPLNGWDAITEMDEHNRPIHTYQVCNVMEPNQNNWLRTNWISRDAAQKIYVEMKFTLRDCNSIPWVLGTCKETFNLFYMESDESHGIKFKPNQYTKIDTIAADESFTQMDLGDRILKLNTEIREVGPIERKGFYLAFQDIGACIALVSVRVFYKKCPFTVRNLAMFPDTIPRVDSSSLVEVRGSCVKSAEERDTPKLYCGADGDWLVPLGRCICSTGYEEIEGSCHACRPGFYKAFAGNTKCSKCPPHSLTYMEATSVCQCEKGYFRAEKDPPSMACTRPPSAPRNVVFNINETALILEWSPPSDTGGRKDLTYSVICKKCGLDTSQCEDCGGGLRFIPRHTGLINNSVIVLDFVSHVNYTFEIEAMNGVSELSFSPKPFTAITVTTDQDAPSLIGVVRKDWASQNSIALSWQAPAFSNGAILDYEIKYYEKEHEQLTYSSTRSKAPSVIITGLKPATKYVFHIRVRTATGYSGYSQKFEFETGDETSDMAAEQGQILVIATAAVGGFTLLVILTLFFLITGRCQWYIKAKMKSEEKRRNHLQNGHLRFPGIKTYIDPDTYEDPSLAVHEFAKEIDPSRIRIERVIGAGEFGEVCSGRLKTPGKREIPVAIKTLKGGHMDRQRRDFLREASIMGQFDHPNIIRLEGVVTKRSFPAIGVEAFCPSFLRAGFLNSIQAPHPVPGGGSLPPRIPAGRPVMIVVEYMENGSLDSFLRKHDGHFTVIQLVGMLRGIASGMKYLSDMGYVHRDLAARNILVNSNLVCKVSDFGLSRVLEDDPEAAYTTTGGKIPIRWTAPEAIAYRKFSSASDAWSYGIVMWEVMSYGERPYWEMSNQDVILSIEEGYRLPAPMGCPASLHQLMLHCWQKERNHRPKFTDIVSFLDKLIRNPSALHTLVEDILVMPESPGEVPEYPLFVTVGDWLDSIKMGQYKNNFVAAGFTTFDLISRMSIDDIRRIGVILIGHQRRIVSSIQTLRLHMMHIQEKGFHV

[4] = Inhibition of HER2-A775-G776 ins YVMA mutant (unknown origin); design: species or system Homo sapiens
[5] = target: Receptor tyrosine-protein kinase erbB-4 (Homo sapiens) (UniProt Q15303); details: dose 500.0 nM
Chain of Receptor tyrosine-protein kinase erbB-4 (Homo sapiens) (Q15303 whole entry): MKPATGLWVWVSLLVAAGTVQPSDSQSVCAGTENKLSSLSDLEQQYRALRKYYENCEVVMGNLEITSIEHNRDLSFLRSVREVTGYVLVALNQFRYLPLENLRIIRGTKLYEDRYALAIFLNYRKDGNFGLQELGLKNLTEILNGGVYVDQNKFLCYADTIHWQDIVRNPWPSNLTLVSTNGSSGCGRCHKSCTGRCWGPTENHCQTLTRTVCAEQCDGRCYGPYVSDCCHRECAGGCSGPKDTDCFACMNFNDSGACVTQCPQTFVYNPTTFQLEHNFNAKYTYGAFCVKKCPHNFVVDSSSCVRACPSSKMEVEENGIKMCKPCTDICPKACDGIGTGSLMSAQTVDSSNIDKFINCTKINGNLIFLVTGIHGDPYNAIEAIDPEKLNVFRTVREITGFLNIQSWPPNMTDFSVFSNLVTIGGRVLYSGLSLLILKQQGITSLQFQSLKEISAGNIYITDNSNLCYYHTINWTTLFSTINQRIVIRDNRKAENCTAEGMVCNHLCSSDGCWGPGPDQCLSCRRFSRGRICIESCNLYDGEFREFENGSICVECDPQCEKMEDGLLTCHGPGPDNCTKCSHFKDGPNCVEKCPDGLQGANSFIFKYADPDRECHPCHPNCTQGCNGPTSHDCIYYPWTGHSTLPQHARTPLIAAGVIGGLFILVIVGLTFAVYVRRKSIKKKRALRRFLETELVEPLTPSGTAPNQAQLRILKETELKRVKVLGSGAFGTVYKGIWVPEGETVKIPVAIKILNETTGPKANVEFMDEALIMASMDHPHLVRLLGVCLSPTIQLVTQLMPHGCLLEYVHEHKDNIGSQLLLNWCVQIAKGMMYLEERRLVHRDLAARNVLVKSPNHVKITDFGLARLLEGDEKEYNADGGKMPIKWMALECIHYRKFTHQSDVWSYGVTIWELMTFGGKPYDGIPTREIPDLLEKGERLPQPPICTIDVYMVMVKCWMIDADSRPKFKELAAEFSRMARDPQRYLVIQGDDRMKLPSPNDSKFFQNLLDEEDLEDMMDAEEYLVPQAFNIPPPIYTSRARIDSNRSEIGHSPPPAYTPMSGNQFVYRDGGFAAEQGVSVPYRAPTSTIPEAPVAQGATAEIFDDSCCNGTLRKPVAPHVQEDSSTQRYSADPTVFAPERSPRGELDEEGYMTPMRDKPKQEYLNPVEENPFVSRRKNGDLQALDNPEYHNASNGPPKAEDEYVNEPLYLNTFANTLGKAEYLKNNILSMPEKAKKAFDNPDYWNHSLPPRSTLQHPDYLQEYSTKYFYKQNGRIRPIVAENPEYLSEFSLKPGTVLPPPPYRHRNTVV
Description: Inhibition of HER4 (unknown origin) at 500 nM relative to control

[6] = target: T2, Tyrosine-protein kinase TXK (Homo sapiens) (UniProt P42681); assay: Inhibition of TXK (unknown origin) at 500 nM relative to control
T2 sequence (whole entry): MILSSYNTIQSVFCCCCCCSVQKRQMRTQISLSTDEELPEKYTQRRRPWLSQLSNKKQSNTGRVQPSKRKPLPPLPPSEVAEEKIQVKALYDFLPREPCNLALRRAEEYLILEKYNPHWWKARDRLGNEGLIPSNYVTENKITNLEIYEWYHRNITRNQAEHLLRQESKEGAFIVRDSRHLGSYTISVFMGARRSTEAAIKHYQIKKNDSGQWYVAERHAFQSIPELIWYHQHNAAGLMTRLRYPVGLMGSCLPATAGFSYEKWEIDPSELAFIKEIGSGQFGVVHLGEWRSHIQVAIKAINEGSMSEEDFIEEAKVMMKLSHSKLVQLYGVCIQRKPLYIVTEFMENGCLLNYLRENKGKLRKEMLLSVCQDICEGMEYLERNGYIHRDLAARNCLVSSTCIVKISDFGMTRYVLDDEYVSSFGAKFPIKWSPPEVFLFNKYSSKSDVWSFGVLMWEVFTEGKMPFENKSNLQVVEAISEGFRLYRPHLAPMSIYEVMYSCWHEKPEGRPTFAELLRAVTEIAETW

[7] = Oral bioavailability in Sprague-Dawley rat at 10 mg/kg measured upto 8 hrs by LC-MS/MS analysis; assay type: ADME, organism-based; details: in vivo
[8] = AUC(0 to t) in Sprague-Dawley rat at 10 mg/kg, iv measured upto 8 hrs by LC-MS/MS analysis; assay type: ADME, organism-based; design: dose 10 mg/kg, time < 8 hrs, route iv; details: in vivo
[9] = Clearance in Sprague-Dawley rat at 10 mg/kg, po measured upto 8 hrs by LC-MS/MS analysis; assay type: ADME, organism-based; details: in vivo
[10] = system: BaF3; assay: Antitumor activity against mouse BaF3 cells implanted in BALB/c mouse harboring EGFR D770-N771 ins NPG mutant assessed as tumor growth inhibition at 20 mg/kg, po administered once daily for 13 to 14 days; assay type: functional; details: time 13-14 day, read-out: TGI
[11] = Clearance in Sprague-Dawley rat at 10 mg/kg, iv measured upto 8 hrs by LC-MS/MS analysis; assay type: ADME, organism-based; details: in vivo
[12] = target: T3, Tyrosine-protein kinase Tec (Homo sapiens) (UniProt P42680); assay: Inhibition of TEC (unknown origin) at 500 nM relative to control
T3 sequence (whole entry): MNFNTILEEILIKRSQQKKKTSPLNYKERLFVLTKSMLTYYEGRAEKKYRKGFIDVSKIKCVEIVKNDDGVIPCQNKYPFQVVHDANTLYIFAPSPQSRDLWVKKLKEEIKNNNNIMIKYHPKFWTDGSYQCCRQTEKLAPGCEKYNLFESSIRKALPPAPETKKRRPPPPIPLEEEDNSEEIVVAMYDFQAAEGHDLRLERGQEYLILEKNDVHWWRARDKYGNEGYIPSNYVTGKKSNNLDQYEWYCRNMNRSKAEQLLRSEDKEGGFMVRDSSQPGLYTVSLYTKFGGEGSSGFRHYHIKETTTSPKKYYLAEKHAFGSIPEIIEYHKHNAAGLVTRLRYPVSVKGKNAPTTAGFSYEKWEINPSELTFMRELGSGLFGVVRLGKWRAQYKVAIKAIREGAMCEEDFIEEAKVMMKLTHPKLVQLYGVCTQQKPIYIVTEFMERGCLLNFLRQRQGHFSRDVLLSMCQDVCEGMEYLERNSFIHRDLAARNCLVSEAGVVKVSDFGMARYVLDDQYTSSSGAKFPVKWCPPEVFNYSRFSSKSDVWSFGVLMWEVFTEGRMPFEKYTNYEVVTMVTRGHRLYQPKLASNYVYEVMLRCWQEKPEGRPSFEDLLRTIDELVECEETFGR

[13] = Mean residence time in Sprague-Dawley rat at 10 mg/kg, po measured upto 8 hrs by LC-MS/MS analysis; assay type: ADME, organism-based; details: in vivo
[14] = target: Receptor tyrosine-protein kinase erbB-2 (Homo sapiens, UniProt P04626); details: dose 500.0 nM
Chain of Receptor tyrosine-protein kinase erbB-2 (P04626 whole entry): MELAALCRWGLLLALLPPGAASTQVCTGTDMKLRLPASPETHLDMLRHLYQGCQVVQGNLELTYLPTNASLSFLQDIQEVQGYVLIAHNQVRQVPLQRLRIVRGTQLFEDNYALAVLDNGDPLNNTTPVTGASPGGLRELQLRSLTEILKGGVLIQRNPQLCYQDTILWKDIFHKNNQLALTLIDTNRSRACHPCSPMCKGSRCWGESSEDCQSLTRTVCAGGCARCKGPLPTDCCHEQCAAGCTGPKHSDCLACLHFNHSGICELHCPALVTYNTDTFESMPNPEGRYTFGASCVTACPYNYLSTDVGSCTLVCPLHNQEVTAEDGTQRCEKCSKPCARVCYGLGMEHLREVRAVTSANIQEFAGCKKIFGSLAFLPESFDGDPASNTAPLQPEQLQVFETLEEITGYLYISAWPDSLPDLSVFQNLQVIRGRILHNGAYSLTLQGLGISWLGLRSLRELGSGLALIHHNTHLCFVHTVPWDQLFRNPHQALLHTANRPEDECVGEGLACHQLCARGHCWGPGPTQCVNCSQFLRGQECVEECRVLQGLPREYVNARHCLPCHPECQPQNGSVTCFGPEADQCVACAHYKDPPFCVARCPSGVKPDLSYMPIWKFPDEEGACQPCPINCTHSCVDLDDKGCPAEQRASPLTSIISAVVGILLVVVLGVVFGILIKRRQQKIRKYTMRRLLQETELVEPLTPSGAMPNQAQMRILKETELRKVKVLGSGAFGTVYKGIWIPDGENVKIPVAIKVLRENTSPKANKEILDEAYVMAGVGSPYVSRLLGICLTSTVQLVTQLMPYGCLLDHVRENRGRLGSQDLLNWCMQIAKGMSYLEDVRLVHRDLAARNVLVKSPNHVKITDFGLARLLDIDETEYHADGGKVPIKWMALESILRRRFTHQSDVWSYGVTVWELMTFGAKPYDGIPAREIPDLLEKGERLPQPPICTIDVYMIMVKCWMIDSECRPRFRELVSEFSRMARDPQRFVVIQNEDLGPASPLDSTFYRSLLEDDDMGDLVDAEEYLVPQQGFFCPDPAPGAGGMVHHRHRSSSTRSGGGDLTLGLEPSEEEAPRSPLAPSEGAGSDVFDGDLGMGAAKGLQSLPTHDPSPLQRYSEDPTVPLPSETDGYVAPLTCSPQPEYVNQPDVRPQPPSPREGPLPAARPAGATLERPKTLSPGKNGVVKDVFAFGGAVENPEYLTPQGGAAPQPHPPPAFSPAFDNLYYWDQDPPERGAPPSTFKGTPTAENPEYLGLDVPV
Description: Inhibition of HER2 (unknown origin) at 500 nM relative to control

IC50 [1]: 0.62 nM | inhibition [3]: > 20% | IC50 [4]: 0.92 nM | inhibition [5]: 100% | inhibition [6]: > 20% | bioavailability [7]: 68% | AUC(0-t) at 8 h [8]: 13900 ng·h/mL | CL/F [9]: 2.96 mL/min | clearance [11]: 2.32 mL/min | inhibition [12]: > 20% | MRT [13]: 3.58 h | inhibition [14]: 100%
Structure (SMILES): C=CC(=O)N1CCC(Oc2cc3c(Nc4cccc(Cl)c4F)ncnc3cc2O[C@H]2CCOC2)CC1
inhibition in vivo at 10 mg/kg [2]: 67% | inhibition in vivo at 20 mg/kg [10]: 83%
